# Source: article PMC12519282, “Reduction of Negative Charge in Mercaptoacetyl-Based Chelators Influences the Biodistribution of Prostate-Specific Membrane Antigen-Targeting Pseudopeptides Labeled with Technetium-99m” (ACS Pharmacology & Translational Science, 2025)
# Like-named read-outs stand apart in the source and are kept apart here. Marks after values point to notes of the source that are not given here.
# Legend:
# PSMA [1] = molecular target: T1, PSMA (Homo sapiens, UniProt Q04609); settings: cited from earlier work
# T1 construct: expressed in transfected cells; host or cells: PC3-pip (PSMA-transfected PC-3 prostate carcinoma cells), from Prof; Martin G. Pomper, Johns Hopkins University
# T1 sequence (Q04609 whole entry): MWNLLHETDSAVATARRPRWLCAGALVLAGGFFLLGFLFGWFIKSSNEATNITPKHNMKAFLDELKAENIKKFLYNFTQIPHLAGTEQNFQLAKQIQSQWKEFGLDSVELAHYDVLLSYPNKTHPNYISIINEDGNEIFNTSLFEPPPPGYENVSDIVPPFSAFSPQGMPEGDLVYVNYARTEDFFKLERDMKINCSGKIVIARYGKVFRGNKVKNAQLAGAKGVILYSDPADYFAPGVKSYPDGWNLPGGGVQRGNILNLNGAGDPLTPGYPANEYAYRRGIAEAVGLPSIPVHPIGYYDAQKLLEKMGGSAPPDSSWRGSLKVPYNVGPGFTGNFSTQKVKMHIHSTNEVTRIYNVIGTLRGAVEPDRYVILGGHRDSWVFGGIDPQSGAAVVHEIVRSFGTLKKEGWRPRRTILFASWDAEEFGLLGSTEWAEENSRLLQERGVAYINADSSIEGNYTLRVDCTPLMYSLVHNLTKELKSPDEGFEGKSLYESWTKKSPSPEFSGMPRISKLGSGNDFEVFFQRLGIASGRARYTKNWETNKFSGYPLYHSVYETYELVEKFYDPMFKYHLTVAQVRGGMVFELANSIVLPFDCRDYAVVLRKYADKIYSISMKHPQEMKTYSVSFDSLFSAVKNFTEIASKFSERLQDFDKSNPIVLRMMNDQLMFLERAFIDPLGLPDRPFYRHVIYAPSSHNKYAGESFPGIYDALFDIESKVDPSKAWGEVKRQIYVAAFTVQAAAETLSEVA
# physchem = format: physicochemical; settings: pH 7.4
# Procedure: To evaluate the label’s stability, 10 μL (0.25 μg) of radiolabeled conjugates was incubated with 300× molar excess of cysteine or with PBS for 1 h at room temperature. The test was run in triplicate. The release of free technetium-99m was controlled by using iTLC and radio-HPLC analysis. The stability in serum was analyzed by mixing the radioconjugates (0.25 μg in 10 μL) with murine serum or PBS (40 μL) as a control. The samples were incubated for 1 h at 37 °C and analyzed by iTLC. The experiment was performed in triplicate. The octanol–water distribution coefficient (Log D) was determined experimentally by the addition of 100 pmol of the radiolabeled tracer to an Eppendorf tube containing PBS (500 μL) and n-octanol (500 μL), pH ∼ 7.4. The solution was vortexed and centrifuged, and aliquots (50 μL) from each phase were collected and measured using a gamma counter. The experiment was performed in triplicate.
# PSMA [2] = molecular target: T1, PSMA; experiment: binding kinetics in real time on living PC3-pip cells (LigandTracer Yellow); settings: 5 nM tracer, 1:2 model (1:1 for BQ0413)
# Procedure: The binding kinetics of technetium-99m-labeled BQ0413, BQ0500, and BQ0501 were determined in PC3-pip cells in real-time using LigandTracer Yellow (Ridgeview Instruments AB, Uppsala, Sweden). The activity binding was recorded with 5 nM radiolabeled tracers for 150 min. After the binding kinetics were measured, the medium containing the labeled tracer was replaced with fresh medium, and the dissociation was monitored over 7 h. The association rate (k a) and the dissociation rate (k d) were computed using a 1:2 kinetic binding model in TraceDrawer software (Ridgeview Instruments AB, Uppsala, Sweden), and the equilibrium dissociation constant K D was calculated.
# PC3-pip xenografts [3] = experiment: biodistribution and tumor targeting in PC3-pip tumor-bearing mice; format: in vivo; settings: PC3-pip tumor-bearing mice, 5 nmol/mouse iv
# From the text: The injected masses for the in vivo experiments were chosen based on the findings for [^99mTc]-Tc-BQ0413: to study the general biodistribution of radiolabeled tracers in normal mice (NMRI), 40 pmol of tracer was used to avoid blocking of PSMA-mediated uptake in kidneys and salivary glands, to study tumor targeting, 5 nmol of tracer was used to decrease uptake in PSMA-expressing organs.
# PSMA-expressing PCa xenografts were implanted in BALB/c nu/nu mice by subcutaneous injection of the PC3-pip cell suspension in PBS (10^7 cells/animal in 100 μL). The average animal weight in the experiment was 18 ± 2 g. The average tumor weight was 0.4 ± 0.2 g. For in vivo specificity control, 10^7 cells/animal PSMA-negative PC-3 cells were implanted. The average animal weight was 18 ± 1 g. The average tumor weight was 0.1 ± 0.1 g. Four mice per data point were used in the in vivo experiments.
# For tumor-bearing mice, each mouse was intravenously injected with 5 nmol of [^99mTc]-Tc-BQ0413, [^99mTc]-Tc-BQ0500, and [^99mTc]-Tc-BQ0501 (60 kBq; the mass of the injected compound was adjusted with an unlabeled tracer). The mice were euthanized after lethal intraperitoneal injection of ketamine/xylazine, followed by exsanguination 1 and 3 h pi, similarly to the procedure described above.
# PC3-pip xenografts [4] = settings: in vivo; cited from earlier work
structure (smiles),measurement,setting,value
O=C(O)CCc1ccc(O)c(CN(CCN(CC(=O)O)Cc2cc(CCC(=O)NCCCCCC(=O)NCCCC[C@H](NC(=O)N[C@@H](CCC(=O)O)C(=O)O)C(=O)O)ccc2O)CC(=O)O)c1 [PSMA-11],Kd,"PSMA [1]; nonlabeled PSMA-11, ref 29 (inferred, citation mark not shown)",0.5 ± 0.2 nM
"CC(=O)NC(CCCCNC(=O)CNC(=O)C(CCC(=O)O)NC(=O)C(CCC(=O)O)NC(=O)C(CCC(=O)O)NC(=O)CS)C(=O)NCCCCCCCC(=O)NC(Cc1ccc(O)cc1)C(=O)NC(Cc1ccc2ccccc2c1)C(=O)NCCCCC(NC(=O)NC(CCC(=O)O)C(=O)O)C(=O)O (stereo not shown) [[^99mTc]Tc-BQ0413, metal not drawn, reference compound]",Log D (octanol–water distribution coefficient),physchem,−2.5 ± 0.1
same,B max1 (binding maximum),PSMA [2],947 CPS
same,Kd,PSMA [2]; read-out: K D1,0.089 nM
same,activity in carcass,PC3-pip xenografts [3]; 1 h pi,8 ± 2 ^b %IA/sample
same,activity in intestines with content,PC3-pip xenografts [3]; 1 h pi,1.7 ± 0.4 %IA/sample
same,activity uptake in blood,PC3-pip xenografts [3]; 1 h pi,1.0 ± 0.3 ^b %IA/g
same,activity uptake in bone,PC3-pip xenografts [3]; 1 h pi,0.9 ± 0.3 ^b %IA/g
same,activity uptake in kidney,PC3-pip xenografts [3]; 1 h pi,23 ± 3 ^b %IA/g
same,activity uptake in liver,PC3-pip xenografts [3]; 1 h pi,1.3 ± 0.4 ^b %IA/g
same,activity uptake in lung,PC3-pip xenografts [3]; 1 h pi,1.2 ± 0.2 ^b %IA/g
same,activity uptake in muscle,PC3-pip xenografts [3]; 1 h pi,0.3 ± 0.1 ^b %IA/g
same,activity uptake in pancreas,PC3-pip xenografts [3]; 1 h pi,0.6 ± 0.1 ^b %IA/g
same,activity uptake in salivary gland,PC3-pip xenografts [3]; 1 h pi,1.4 ± 0.2 ^b %IA/g
same,activity uptake in small intestines,PC3-pip xenografts [3]; 1 h pi,0.5 ± 0.1^b %IA/g
same,activity uptake in spleen,PC3-pip xenografts [3]; 1 h pi,1.9 ± 0.8 %IA/g
same,activity uptake in stomach,PC3-pip xenografts [3]; 1 h pi,1.5 ± 0.4 %IA/g
same,activity uptake in tumor,PC3-pip xenografts [3]; 1 h pi,19 ± 4 %IA/g
same,tumor-to-blood ratio,PC3-pip xenografts [3]; 1 h pi,22 ± 12 ^b
same,tumor-to-bone ratio,PC3-pip xenografts [3]; 1 h pi,27 ± 17 ^b
same,tumor-to-kidney ratio,PC3-pip xenografts [3]; 1 h pi,0.9 ± 0.3 ^b
same,tumor-to-liver ratio,PC3-pip xenografts [3]; 1 h pi,17 ± 9 ^b
same,tumor-to-lung ratio,PC3-pip xenografts [3]; 1 h pi,16 ± 5 ^b
same,tumor-to-muscle ratio,PC3-pip xenografts [3]; 1 h pi,62 ± 25 ^b
same,tumor-to-pancreas ratio,PC3-pip xenografts [3]; 1 h pi,38 ± 5 ^b
same,tumor-to-salivary gland ratio,PC3-pip xenografts [3]; 1 h pi,14 ± 3 ^b
same,tumor-to-small intestines ratio,PC3-pip xenografts [3]; 1 h pi,41 ± 17 ^b
same,tumor-to-spleen ratio,PC3-pip xenografts [3]; 1 h pi,9 ± 3 ^b
same,tumor-to-stomach ratio,PC3-pip xenografts [3]; 1 h pi,13 ± 2 ^b
same,activity in carcass,PC3-pip xenografts [3]; 3 h pi,1.7 ± 0.3 %IA/sample
same,activity in intestines with content,PC3-pip xenografts [3]; 3 h pi,1.7 ± 0.2 %IA/sample
same,activity uptake in blood,PC3-pip xenografts [3]; 3 h pi,0.17 ± 0.04 %IA/g
same,activity uptake in bone,PC3-pip xenografts [3]; 3 h pi,0.2 ± 0.1 %IA/g
same,activity uptake in kidney,PC3-pip xenografts [3]; 3 h pi,9 ± 2 %IA/g
same,activity uptake in liver,PC3-pip xenografts [3]; 3 h pi,0.3 ± 0.1 %IA/g
same,activity uptake in lung,PC3-pip xenografts [3]; 3 h pi,0.3 ± 0.1 %IA/g
same,activity uptake in muscle,PC3-pip xenografts [3]; 3 h pi,0.06 ± 0.02 %IA/g
same,activity uptake in pancreas,PC3-pip xenografts [3]; 3 h pi,0.13 ± 0.02 %IA/g
same,activity uptake in salivary gland,PC3-pip xenografts [3]; 3 h pi,0.5 ± 0.1 %IA/g
same,activity uptake in small intestines,PC3-pip xenografts [3]; 3 h pi,0.2 ± 0.1 %IA/g
same,activity uptake in spleen,PC3-pip xenografts [3]; 3 h pi,0.9 ± 0.5 %IA/g
same,activity uptake in stomach,PC3-pip xenografts [3]; 3 h pi,0.6 ± 0.2 %IA/g
same,activity uptake in tumor,PC3-pip xenografts [3]; 3 h pi,17 ± 3 %IA/g
same,tumor-to-blood ratio,PC3-pip xenografts [3]; 3 h pi,94 ± 3
same,tumor-to-bone ratio,PC3-pip xenografts [3]; 3 h pi,114 ± 29
same,tumor-to-kidney ratio,PC3-pip xenografts [3]; 3 h pi,1.9 ± 0.3
same,tumor-to-liver ratio,PC3-pip xenografts [3]; 3 h pi,48 ± 5
same,tumor-to-lung ratio,PC3-pip xenografts [3]; 3 h pi,52 ± 8
same,tumor-to-muscle ratio,PC3-pip xenografts [3]; 3 h pi,284 ± 19
same,tumor-to-pancreas ratio,PC3-pip xenografts [3]; 3 h pi,135 ± 11
same,tumor-to-salivary gland ratio,PC3-pip xenografts [3]; 3 h pi,31 ± 3
same,tumor-to-small intestines ratio,PC3-pip xenografts [3]; 3 h pi,126 ± 57
same,tumor-to-spleen ratio,PC3-pip xenografts [3]; 3 h pi,16 ± 4
same,tumor-to-stomach ratio,PC3-pip xenografts [3]; 3 h pi,24 ± 2
same,Kd,"PSMA [1]; PC3-pip, ref 15 (inferred, reference cell empty)",0.033 nM
same,excretion pathway,PC3-pip xenografts [4],renal
same,tumor uptake,PC3-pip xenografts [4],33 ± 3%IA/g (3 h)
same,tumor-to-blood ratio,PC3-pip xenografts [4],314 ± 73 (3 h)
